Results from patent US4925835A, “Aziridinyl putrescine containing compositions and their uses in treating prostate cancer” (priority 1987, dated 1990).

Tests used:
[1] = Alkylating activity with 4-(p-nitrobenzyl)pyridine; conditions: 100 nmol in 5.0 ml, 0.1M acetate, PH 4.5, 37° C., 2 h
Procedure: The preparation of 1-(4-aminobutyl) aziridine from 1,4-diaminobutane (putrescine) was performed by the three-step synthetic method reported by Piper et al. supra.
1-(4-aminobutyl) aziridine (100 nmol) produced an absorbance increase of 0.7 with 4-(p-nitrobenzyl)pyridine in 5.0 ml when incubated in 0.1M acetate, PH 4.5, at 37° C. for 2 h. […] The retention times were: putrescine, 19.6 min; 1-(4-aminobutyl) aziridine, 21.1 min; and histamine, 21.8 min.

[2] = system: normal rat prostate; experiment: In vivo antiprostatic activity, prostate wet weight; conditions: Copenhagen rats
Procedure: 1-(4-aminobutyl) aziridine, difluoromethylornithine, and a combination of 1-(4-aminobutyl) aziridine and difluoromethylornithine were tested in vivo for antiprostatic activity using Copenhagen rats. The normal rat prostate is often used as a model or control for drugs which are suspected of having antiprostatic cancer activity. Sloan, et al., Cancer Chemother. Rep. 59: 185-194 (1975). 1-(4-aminobutyl) aziridine, difluoromethylornithine, and a combination of 1-(4-aminobutyl) aziridine and difluoromethylornithine were administered to twenty-eight (28) Copenhagen rats for 14 days. 1-(4-aminobutyl) aziridine was administered by an infusion mini-pump implanted intraperitoneally.
Difluoromethylornithine was administered orally. The 1-(4-aminobutyl) aziridine was delivered at a rate of 2 mg/kg/day. A similar amount of difluoromethylornithine was administered orally on a daily basis. Before loading the infusion pump, the pH of 1-(4-aminobutyl) aziridine was adjusted to 7.5 with hydrochloric acid. The pump rate was 0.5 u./hr.
The prostates of the twenty-eight (28) subjects were removed, freed of fat and weighed to the nearest milligram.

[3] = system: human prostate cancer cell line PC-3; experiment: cells; format: cell-based
Procedure: Aziridinyl putrescine 1-(4-aminobutyl) aziridine was synthesized using the method as described by Piper, et al., J. Med. Chem. 12: 236-243 (1968). Cells of the human prostate cancer cell line PC-3 were used.
10^3 PC-3 human cells were plated in RPMI 1640 with 10% FCS/3 ml in 60 mm^2 petri dishes. The cell plates were incubated either with, or without difluoromethylornithine for 48 hours. This was followed by aspiration, and replacement with a medium containing either no additives, 50 uM 1-(4-aminobutyl) aziridine, 1 mM putrescine, or both 50 uM 1-(4-aminobutyl) aziridine and 1 mM putrescine. The media were aspirated after 1 hour, and replaced with a drug free medium. Incubation continued for 5 days.
*Represents mean number of colonies ± one standard deviation of
triplicate assay. Number in parenthesis is percent of control.

[4] = system: uptake of [14C]putrescine into PC-3 cells; format: cell-based, human; conditions: PC-3 cells
Procedure: FIG. 1. Lineweaver-Burk plot of the uptake of [^14 C]putrescine by DFMO-pretreated cells. The ordinate is expressed as 1/pmol/15 min. The abscissa is expressed as 1 μM concentrations containing from 16 to 1.0 μM [^14 C]putrescine.
Fifty thousand PC-3 cells were plated in 12-well plates and 18 h later the incubation medium was removed and replaced with 1 ml or RPMI 1640 medium containing 25 mM 4-(2-hydroxyethyl)-1-piperazineethansulfonic acid buffer, 100 μM aminoguanidine, and 10% FCS. Forty-eight h later the medium was replaced with medium which contained [^14 C]putrescine in concentrations ranging from 16 to 1.0 μM with or without 5 1M 1-(4-aminobutyl) aziridine. Following incubation at 37° C. for 15 min the [^14 C]putrescine-containing medium was aspirated, and the cells were rinsed rapidly 4 times with HBSS. Following the last rinse, 1.0 ml of a solution of 0.1N NaOH was added and after a 2-h incubation at room temperature a 0.2-ml aliquot was added to 1 ml of 2% glacial acidic acid and 10 ml of Scintiverse 1 scintillation cocktail and the radioactive disintegrations were determined with a Packard Tri-Carb 300 scintillation spectrophotometer. Counting efficiency for ^14 C was 80%. Kinetic analysis of uptake was performed by graphic methods as described by Dixon and Webb, Enzymes, p. 322, New York Academic Press (1959).
In FIG. 1 a Lineweaver-Burk plot of the uptake of [^14 C]-putrescine into the PC-3 cells is presented and was used to determine the Km (intercept x axis) and Vmax (intercept y axis) for putrescine.

[5] = 14 days, AZP 2 mg/kg/day by intraperitoneal infusion mini-pump, DFMO similar amount orally

NCCCCN1CC1 [AZP, 1-(4-aminobutyl) aziridine]
Absorbance increase with 4-(p-nitrobenzyl)pyridine (alkylating activity) [1]: 0.7
Reduction of the size of the normal ventral prostate ([2]; 2 mg/kg/day over a fourteen day period): approximately 67%
Animal toxicity (weight or fur loss, poor posture) ([2]; 2 mg/kg/day, 14 days): no evidence of animal toxicity
Organ toxicity on examination at sacrifice (liver, spleen, intestine, kidneys) ([2]; 2 mg/kg/day, 14 days): no other organs, e.g., liver, spleen, intestine, kidneys, demonstrated any evidence of toxicity
Effect on prostate size (in words) ([2]; 14 days): significantly decreased the size of the normal ventral prostates
Dorsal Lateral Prostate, milligram wet weight (SEM) [2, 5]: 474 ± 39 milligram
Ventral Prostate, milligram wet weight (SEM) [2, 5]: 378 ± 30 milligram
activity at 50 µM ([3]; Homo sapiens, PC-3, read-out: Clonogenic survivors, percent of control): 36%
inhibition at 50 µM ([3]; Homo sapiens, PC-3, read-out: Inhibition of proliferation of human prostate cancer cells in culture, AZP at 50 uM, from Table 1): ~64%
Clonogenic survivors (mean number of colonies ± one standard deviation) ([3]; PC-3, 48 h with or without DFMO, then 1 h with 50 uM AZP and/or 1 mM putrescine, 5 days drug free): 210 ± 30 colonies
Type of inhibition of putrescine uptake [4]: consistent with competitive inhibition
Ki ([4]; with or without difluoromethylornithine pretreatment, 5 1M AZP, read-out: Apparent Ki for inhibition of putrescine uptake): 1000 nM
